Results reported in patent US7084166B2, “Bis-heterocyclic compounds with antitumour and chemosensitising activity” (Sigma-Tau Industrie Farmaceutichee Riunite S.p.A., priority 2000, dated 2006).
Where two headings read alike, the source gives them in different places.

Assays:
Format in all cases: cell-based
[1] = system: MCF-7 (human mammary carcinoma); test: Cytotoxicity test on sensitive tumour cell lines (sulforodamine B test); conditions: 24 h incubation, survival after 48 h, ± S.D., read-out: antiproliferative activity IC50, MCF-7
Protocol: (§1) This test was used to evaluate the survival of the human cell lines MCF-7 (human mammary carcinoma), LoVo (human colon adenocarcinoma), and MES-SA (human uterine sarcoma). The tumour cells were incubated with the compound, at scalar concentrations, (500 μM÷0.97 μM) for 24 hours; the compound was then removed and cell survival was evaluated after 48 hours using the sulforodamine B test (J. Natl. Cancer Inst. 82, 1107–1112). The antiproliferative activity of the compounds was evaluated in terms of the IC50 (concentration of the molecule that inhibits 50% of cell survival) processed with a curve-fitting program (Am. J. Physiol. 1978., 235, E97–E102) and expressed as μM±S.D.

[2] = system: LoVo (human colon adenocarcinoma); test: as above; conditions: 24 h incubation, survival after 48 h, ± S.D., read-out: antiproliferative activity IC50, Lovo
Protocol: as §1

[3] = system: MES-SA (human uterine sarcoma); test: as above; conditions: 24 h incubation, survival after 48 h, ± S.D., read-out: antiproliferative activity IC50, Mes-Sa
Protocol: as §1

[4] = system: MCF-7-Dx (human mammary carcinoma); test: Cytotoxicity test on resistant tumour cell lines, tested compound alone; conditions: 24 h incubation, survival after 48 h, ± SD
Protocol: (§2) This test was used to evaluate the survival of human cell lines resistant to doxorubicin (about 100 times) and cross-resistant to daunorubicin, actinomycin D, mitoxantrone, vincristine, vinblastin, taxol, colchicine, and etoposide.
(§3) The following cell lines were used: MCF-7-Dx (human mammary carcinoma), LoVo-Dx (human colon adenocarcinoma), MES-SA Dx (human uterine sarcoma).
(§4) Before using the association doxorubicin-tested compound, the cytotoxicity of the cells was evaluated with the tested compound (alone) as follows: the cells were incubated with the compound, at scalar concentrations (500 μM÷0.97 μM), for 24 hours; the compound was then removed and cell survival was evaluated after 48 hours with the above-mentioned sulforodamine B test. The antiproliferative activity of the compounds was evaluated in terms of IC50 (concentration of the compound that inhibits 50% of cell survival) processed with the above-mentioned curve-fitting program.

[5] = system: MES-SA Dx (human uterine sarcoma); test: as above; conditions: 24 h incubation, survival after 48 h, ± SD
Protocol: as §2, §3, §4

[6] = system: LoVo-Dx (human colon adenocarcinoma); test: as above; conditions: 24 h incubation, survival after 48 h, ± SD
Protocol: as §2, §3, §4

[7] = system: NB4 cells (acute promyelocytic leukaemia); test: Flow cytofluorimetric analysis of cell cycle; parameters: APOPTOSIS: unit not given here; conditions: for APOPTOSIS / G0/G1 / G2/M / S: day 3
Protocol: The first line used was the NB4 cell line, bearing the t(15;17) chromosomal translocation which generates the fusion protein PML/RARα.
To assess the effect of the tested compounds on the various phases of the cell cycle, on the third day of treatment 500,000 cells were harvested, centrifuged at 1,000 rpm for 10 minutes, washed twice in PBS w/o (PBS without calcium and magnesium) and fixed in a solution of 50% PBS w/o+50% methanol/acetone (1:4 v/v) for at least 1 hour; the cells were then centrifuged as described, washed in PBS w/o and centrifuged again.
200 μl of propidium iodide 100 μg/ml and 200 μl of RNase 150 kU/mg were then added to the cell pellet.
After a 30-min incubation in the dark at room temperature, the samples were analysed by flow cytofluirometry.

[8] = system: NB4 cells (acute promyelocytic leukaemia); test: Cell differentiation by reduction of nitroblue tetrazolium (NBT), with suboptimal ATRA; conditions: combined with suboptimal doses of ATRA, NBT; for AC50: 3 days, read-out: AC50 (concentration at which the tested compound induces 50% of cell differentiation)
Protocol: The first line used was the NB4 cell line, bearing the t(15;17) chromosomal translocation which generates the fusion protein PML/RARα. This line is very sensitive to the differentiative action of pharmacological doses of ATRA (10^−7–10^−6 M).
The HL60 and NB4 cells were seeded at a density of 150,000 cells/ml in RPMI 1640 medium containing 10% foetal calf serum, and were treated with the tested compounds in the presence and absence of suboptimal doses of ATRA (5–10 nM for NB4 and 0.5 μM for HL60, respectively) in the dark, and returned to the incubator for 3 days without ever replacing the culture medium.
To analyse the differentiative effect of the tested compounds vs ATRA, on the third day of treatment 500,000 viable cells were harvested from each sample, centrifuged for 10 minutes at 1.000 rpm and resuspended in 1 ml of RPMI 1640 medium containing 10% foetal calf serum, 1 mg/ml of nitroblue tetrazolium (NBT) and 100 ng of PMA (phorbol 12-myristate 13-acetate).
The cells thus resuspended were incubated in the dark at 37° C. for 60 minutes.
At the end of the incubation, the cell suspension was centrifuged for 10 minutes at 10,000 rpm; the pellet obtained was then resuspended in 1 ml of PBS containing 10% Triton X-100 and sonicated to lysis.
Spectrophotometric readings of the samples were then taken at a wavelength of 540 nm: samples containing differentiated cells shifted towards a violet colour, whereas control samples and/or samples with non-differentiated cells were colourless or, at any rate, much less intensely coloured.
The AC50 (Activating Concentration) is the concentration at which the tested compound induces 50% of cell differentiation.
Fold Induction is the increase in the differentiation value of the cell sample treated with the tested compound +ATRA vs the value of the cell sample treated with ATRA alone. This value provides an indication of the ability (potency) of the tested compound to enhance ATRA induced cell differentiation.

OC(c1ccccc1)(c1nccn1Cc1ccccc1)c1nccn1Cc1ccccc1 [ST 1440, phenyl, hydroxy, di-(N,N-dibenzyl-imidazol-2-yl) methane]
IC50 [1]: 17 ± 2.9 µM | IC50 [2]: 11.7 ± 0.2 µM | IC50 [3]: 4.7 ± 0.4 µM | IC50 [4]: 29.7 ± 2.6 µM | IC50 [5]: 14.9 ± 2.5 µM | IC50 [6]: 4.6 ± 0.6 µM

CCCC(c1c[nH]c2cc3c(cc12)OCO3)c1c[nH]c2cc3c(cc12)OCO3 [ST 1478, 1,1-di-(5,6-methylenedioxy-indol-3-yl)-butane]
IC50 ([1]; Homo sapiens, MCF7): 11.8 ± 0.4 µM | IC50 ([2]; Homo sapiens, LoVo): 15.4 ± 1.8 µM | IC50 ([3]; Homo sapiens, MES-SA): 17 ± 2 µM | IC50 ([4]; Homo sapiens, MCF7/DX): 15.2 ± 1.9 µM | IC50 ([5]; Homo sapiens, MES-SA Dx): 7.8 ± 1.5 µM | IC50 ([6]; Homo sapiens, LoVo/DX): 10.7 ± 0.6 µM

c1ccc2c(C(c3c[nH]c4ccccc34)C3CCCCC3)c[nH]c2c1 [ST 1487, 1,1-di-(indol-3-yl)-cyclohexylmethane]
IC50 [1]: 29.9 ± 0.006 µM | IC50 [2]: 24.9 ± 0.1 µM | IC50 [3]: 38.7 ± 0.03 µM | IC50 [4]: 15.3 ± 1 µM | IC50 [5]: 16 ± 3.5 µM | IC50 [6]: 27.8 ± 2.1 µM

CS(=O)(=O)OCCCCC(c1c[nH]c2ccccc12)c1c[nH]c2ccccc12 [ST 1488, 1,1-di-(indol-3-yl)-5-mesyloxy-pentane]
IC50 ([1]; Homo sapiens, MCF7): 13.4 ± 2.2 µM | IC50 ([2]; Homo sapiens, LoVo): 11 ± 1.6 µM | IC50 ([3]; Homo sapiens, MES-SA): 15.8 ± 1.8 µM | IC50 ([4]; Homo sapiens, MCF7/DX): 9.7 ± 1.3 µM | IC50 ([5]; Homo sapiens, MES-SA Dx): 10.3 ± 1.9 µM | IC50 ([6]; Homo sapiens, LoVo/DX): 18.1 ± 0.6 µM

OCCCC(c1c[nH]c2ccccc12)c1c[nH]c2ccccc12 [ST 1707, 1,1-di(indol-3-yl)-4-hydroxy-butane]
APOPTOSIS ([7]; compound 1 μM + ATRA 0.01 μM): 17.0 | G0/G1 ([7]; compound 1 μM + ATRA 0.01 μM): 65.4 | G2/M ([7]; compound 1 μM + ATRA 0.01 μM): 11.8 | S ([7]; compound 1 μM + ATRA 0.01 μM): 22.8 | APOPTOSIS ([7]; compound 5 μM + ATRA 0.01 μM): 14.0 | G0/G1 ([7]; compound 5 μM + ATRA 0.01 μM): 69.8 | G2/M ([7]; compound 5 μM + ATRA 0.01 μM): 11.3 | S ([7]; compound 5 μM + ATRA 0.01 μM): 18.9 | APOPTOSIS ([7]; compound 10 μM + ATRA 0.01 μM): 13.0 | G0/G1 ([7]; compound 10 μM + ATRA 0.01 μM): 70.4 | G2/M ([7]; compound 10 μM + ATRA 0.01 μM): 11.5 | S ([7]; compound 10 μM + ATRA 0.01 μM): 18.1 | APOPTOSIS ([7]; compound 50 μM + ATRA 0.01 μM): 11.5 | G0/G1 ([7]; compound 50 μM + ATRA 0.01 μM): 80.6 | G2/M ([7]; compound 50 μM + ATRA 0.01 μM): 9.0 | S ([7]; compound 50 μM + ATRA 0.01 μM): 10.4 | APOPTOSIS ([7]; compound alone 1 μM): 17.0 | G0/G1 ([7]; compound alone 1 μM): 51.7 | G2/M ([7]; compound alone 1 μM): 10.1 | S ([7]; compound alone 1 μM): 38.2 | APOPTOSIS ([7]; compound alone 5 μM): 19.5 | G0/G1 ([7]; compound alone 5 μM): 52.5 | G2/M ([7]; compound alone 5 μM): 11.1 | S ([7]; compound alone 5 μM): 36.4 | APOPTOSIS ([7]; compound alone 10 μM): 17.5 | G0/G1 ([7]; compound alone 10 μM): 52.2 | G2/M ([7]; compound alone 10 μM): 10.8 | S ([7]; compound alone 10 μM): 37.0 | APOPTOSIS ([7]; compound alone 50 μM): 17.0 | G0/G1 ([7]; compound alone 50 μM): 52.0 | G2/M ([7]; compound alone 50 μM): 12.0 | S ([7]; compound alone 50 μM): 36.0 | effect of the compound alone on cell cycle and apoptosis (in words) ([7]; compound alone (ST 1346: high doses)): does not induce apoptosis | AC50 ([8]; Homo sapiens, NB-4, 72 h): 8.3 ± 0.05 µM | fold induction (differentiation, compound + ATRA vs ATRA alone) [8]: 2.5

O=C(O)CCC(c1c[nH]c2ccccc12)c1c[nH]c2ccccc12 [ST 1961, 4,4-di-(1H-indolyl-)butanoic acid]
APOPTOSIS ([7]; compound alone 1 μM): 18.5 | G0/G1 ([7]; compound alone 1 μM): 47.5 | G2/M ([7]; compound alone 1 μM): 15.6 | S ([7]; compound alone 1 μM): 36.9 | APOPTOSIS ([7]; compound alone 5 μM): 24.0 | G0/G1 ([7]; compound alone 5 μM): 49.7 | G2/M ([7]; compound alone 5 μM): 13.0 | S ([7]; compound alone 5 μM): 37.3 | APOPTOSIS ([7]; compound alone 10 μM): 24.0 | G0/G1 ([7]; compound alone 10 μM): 48.4 | G2/M ([7]; compound alone 10 μM): 14.1 | S ([7]; compound alone 10 μM): 37.5 | APOPTOSIS ([7]; compound alone 50 μM): 24.0 | G0/G1 ([7]; compound alone 50 μM): 56.3 | G2/M ([7]; compound alone 50 μM): 14.0 | S ([7]; compound alone 50 μM): 29.7 | AC50 [8]: 6.6 ± 2 µM | fold induction (differentiation, compound + ATRA vs ATRA alone) [8]: 1.4
